Source: patent US20240293413A1, “COMPOUND AND METHOD FOR TREATING CHEMOTHERAPY-RELATED GASTROINTESTINAL SIDE EFFECTS” (ONQUALITY PHARMACEUTICALS CHINA LTD., priority 2021, published 2024)

How the values were obtained:
Format in all cases: in vivo
[1] = tested on: Chemotherapeutic agent-caused diarrhea models of Balb/c mice; test: Examples 1-229 (Table 3): oral CDK inhibitor, relief of diarrhea caused by a chemotherapeutic agent;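 further: percent of treated mice whose diarrhea grade fell below chemotherapy-group average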
[2] = tested on: diarrhea caused by a chemotherapeutic agent in Balb/c mice; test: Examples 230-271 (Table 4): oral CDK inhibitor, relief of diarrhea caused by a chemotherapeutic agent
Source text: Balb/c mice were fed for 1 week, and then divided into groups. The experiment was divided into a control group, a chemotherapeutic agent group, and a CDK inhibitor group, each of which comprised 10 mice, to perform the administration experiment, for which the administration dosage, mode, time and frequency were shown in Table 4. The control group: being intragastrically administered with the same solvent as that used in the CDK inhibitor group (the time was shown in Table 4), and then being injected/intragastrically administered with the same solvent as that used in the chemotherapeutic agent group (the administration mode was shown in Table 4): the chemotherapeutic agent group: being intragastrically administered with the same solvent as that used in the CDK inhibitor group (the time was shown in Table 4), and then being injected/intragastrically administered with the chemotherapeutic agent (the type, administration mode and dosage were shown in Table 4): the CDK inhibitor group: being intragastrically administered with the CDK inhibitor (the time was shown in Table 4), and then being administered with the chemotherapeutic agent (the mode and dosage were shown in Table 4).
(§1) The diarrhea grading of mice was observed and recorded every day.

[3] = tested on: diarrhea caused by a chemotherapeutic agent in Balb/c mice; test: Examples 343-381 (Table 6): oral versus intravenous CDK inhibitor, relief of diarrhea caused by a chemotherapeutic agent;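 on Relative remission rate: percent of treated mice whose diarrhea grade fell below chemotherapy-group average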
Source text: Balb/c mice were fed for 1 week, and then divided into groups. The experiment was divided into a control group, a chemotherapeutic agent group, and an oral administration group of a CDK inhibitor, and an intravenous injection group of a CDK inhibitor, each of which comprised 10 mice, to perform the administration experiment, for which the administration dosage, mode, time and frequency were shown in Table 6. The control group: being injected/intragastrically administered with the same solvent as that used in the CDK inhibitor group (the time was shown in Table 6), and then being injected/intragastrically administered with the same solvent as that used in the chemotherapeutic agent group (the administration mode was shown in Table 6): the chemotherapeutic agent group: being injected/intragastrically administered with the same solvent as that used in the CDK inhibitor group (the time was shown in Table 6), and then being injected/intragastrically administered with the chemotherapeutic agent (the type, administration mode and dosage were shown in Table 6): the oral administration group of the CDK inhibitor: being intragastrically administered with the CDK inhibitor (the time was shown in Table 6), and then being administered with the chemotherapeutic agent (the mode and dosage were shown in Table 6): the intravenous injection group of the CDK inhibitor: being injected with the CDK inhibitor through tail vein (the time was shown in Table 6), and then being administered with the chemotherapeutic agent (the mode and dosage were shown in Table 6).
as §1

SMILES: CN1CCN(c2ccc(Nc3ncc4cc5n(c4n3)C3(CCCCC3)CNC5=O)nc2)CC1 [Trilaciclib (G1T28), Trilaciclib]
- Relative remission rate (%) ([1]; Example 49, Oxaliplatin intraperitoneal injection 20 mg/kg single, CDK inhibitor oral 100 mg/kg single 0.5 h before, cycle 8 days): 60%
- Relative remission rate (%) ([1]; Example 50, Oxaliplatin intraperitoneal injection 20 mg/kg single, CDK inhibitor oral 100 mg/kg single 1 h before, cycle 8 days): 50%
- Relative remission rate (%) ([1]; Example 51, Oxaliplatin intraperitoneal injection 20 mg/kg single, CDK inhibitor oral 100 mg/kg single 2 h before, cycle 8 days): 40%
- Relative remission rate (%) ([1]; Example 52, Oxaliplatin intraperitoneal injection 20 mg/kg single, CDK inhibitor oral 100 mg/kg single 3 h before, cycle 8 days): 60%
- Relative remission rate (%) ([1]; Example 53, Oxaliplatin intraperitoneal injection 20 mg/kg single, CDK inhibitor oral 100 mg/kg single 4 h before, cycle 8 days): 50%
- Relative remission rate (%) ([1]; Example 54, Oxaliplatin intraperitoneal injection 20 mg/kg single, CDK inhibitor oral 100 mg/kg single 5 h before, cycle 8 days): 30%
- Relative remission rate (%) ([1]; Example 55, Oxaliplatin intraperitoneal injection 20 mg/kg single, CDK inhibitor oral 100 mg/kg single 6 h before, cycle 8 days): 80%
- Relative remission rate (%) ([1]; Example 56, Oxaliplatin intraperitoneal injection 20 mg/kg single, CDK inhibitor oral 100 mg/kg single 7 h before, cycle 8 days): 60%
- Relative remission rate (%) ([1]; Example 57, Oxaliplatin intraperitoneal injection 20 mg/kg single, CDK inhibitor oral 100 mg/kg single 8 h before, cycle 8 days): 60%
- Relative remission rate (%) ([1]; Example 58, Oxaliplatin intraperitoneal injection 20 mg/kg single, CDK inhibitor oral 100 mg/kg single 9 h before, cycle 8 days): 80%
- Relative remission rate (%) ([1]; Example 59, Oxaliplatin intraperitoneal injection 20 mg/kg single, CDK inhibitor oral 100 mg/kg single 10 h before, cycle 8 days): 70%
- Relative remission rate (%) ([1]; Example 60, Oxaliplatin intraperitoneal injection 20 mg/kg single, CDK inhibitor oral 100 mg/kg single 11 h before, cycle 8 days): 70%
- Relative remission rate (%) ([1]; Example 61, Oxaliplatin intraperitoneal injection 20 mg/kg single, CDK inhibitor oral 100 mg/kg single 12 h before, cycle 8 days): 50%
- Relative remission rate (%) ([1]; Example 62, Oxaliplatin intraperitoneal injection 20 mg/kg single, CDK inhibitor oral 100 mg/kg single 14 h before, cycle 8 days): 60%
- Relative remission rate (%) ([1]; Example 63, Oxaliplatin intraperitoneal injection 20 mg/kg single, CDK inhibitor oral 100 mg/kg single 16 h before, cycle 8 days): 80%
- Relative remission rate (%) ([1]; Example 64, Oxaliplatin intraperitoneal injection 20 mg/kg single, CDK inhibitor oral 100 mg/kg single 18 h before, cycle 8 days): 80%
- Relative remission rate (%) ([1]; Example 65, Oxaliplatin intraperitoneal injection 20 mg/kg single, CDK inhibitor oral 100 mg/kg single 20 h before, cycle 8 days): 70%
- Relative remission rate (%) ([1]; Example 66, Oxaliplatin intraperitoneal injection 20 mg/kg single, CDK inhibitor oral 100 mg/kg single 22 h before, cycle 8 days): 50%
- Relative remission rate (%) ([1]; Example 67, Oxaliplatin intraperitoneal injection 20 mg/kg single, CDK inhibitor oral 100 mg/kg single 24 h before, cycle 8 days): 50%
- Relative remission rate (%) ([1]; Example 68, Oxaliplatin intraperitoneal injection 20 mg/kg single, CDK inhibitor oral 100 mg/kg single 48 h before, cycle 8 days): 0%
- Relative remission rate (%) ([1]; Example 127, Irinotecan (CPT-11) intramuscular injection 240 mg/kg single, CDK inhibitor oral 50 mg/kg single 1 h before, cycle 7 days): 70%
- Relative remission rate (%) ([1]; Example 170, Gemcitabine (GEM) intraperitoneal injection 120 mg/kg single, CDK inhibitor oral 60 mg/kg single 0.5 h before, cycle 8 days): 50%
- Relative remission rate (%) ([1]; Example 171, Gemcitabine (GEM) intraperitoneal injection 120 mg/kg single, CDK inhibitor oral 60 mg/kg single 1 h before, cycle 8 days): 50%
- Relative remission rate (%) ([1]; Example 172, Gemcitabine (GEM) intraperitoneal injection 120 mg/kg single, CDK inhibitor oral 60 mg/kg single 2 h before, cycle 8 days): 40%
- Relative remission rate (%) ([1]; Example 173, Gemcitabine (GEM) intraperitoneal injection 120 mg/kg single, CDK inhibitor oral 60 mg/kg single 4 h before, cycle 8 days): 60%
- Relative remission rate (%) ([1]; Example 174, Gemcitabine (GEM) intraperitoneal injection 120 mg/kg single, CDK inhibitor oral 60 mg/kg single 6 h before, cycle 8 days): 50%
- Relative remission rate (%) ([1]; Example 175, Gemcitabine (GEM) intraperitoneal injection 120 mg/kg single, CDK inhibitor oral 60 mg/kg single 8 h before, cycle 8 days): 50%
- Relative remission rate (%) ([1]; Example 176, Gemcitabine (GEM) intraperitoneal injection 120 mg/kg single, CDK inhibitor oral 60 mg/kg single 10 h before, cycle 8 days): 50%
- Relative remission rate (%) ([1]; Example 177, Gemcitabine (GEM) intraperitoneal injection 120 mg/kg single, CDK inhibitor oral 60 mg/kg single 12 h before, cycle 8 days): 40%
- Relative remission rate (%) ([1]; Example 178, Gemcitabine (GEM) intraperitoneal injection 120 mg/kg single, CDK inhibitor oral 60 mg/kg single 14 h before, cycle 8 days): 60%
- Relative remission rate (%) ([1]; Example 193, Gemcitabine (GEM) oral administration 300 mg/kg single, CDK inhibitor oral 200 mg/kg single, 2 h before, 8 days): 60%
- Relative remission rate (%) ([1]; Example 227, Topotecan intravenous injection 20 mg/kg single, CDK inhibitor oral 100 mg/kg single, 0.5 h before, 14 days): 70%
- Relative remission rate ([2]; Example 236, Doxorubicin (Dox) intravenous injection 12 mg/kg single, CDK inhibitor oral 180 mg/kg single, 1 h before, cycle 10 days): 40%
- Relative remission rate ([2]; Example 237, Doxorubicin (Dox) intravenous injection 12 mg/kg single, CDK inhibitor oral 180 mg/kg single, 12 h before, cycle 10 days): 60%
- Relative remission rate ([2]; Example 238, Doxorubicin (Dox) intravenous injection 12 mg/kg single, CDK inhibitor oral 180 mg/kg single, 24 h before, cycle 10 days): 60%
- Relative remission rate ([2]; Example 239, Doxorubicin (Dox) intravenous injection 12 mg/kg single, CDK inhibitor oral 180 mg/kg single, 48 h before, cycle 10 days): 0%
- Relative remission rate ([2]; Example 254, Cytarabine (Ara-C) intraperitoneal injection 600 mg/kg single, CDK inhibitor oral 100 mg/kg single, 0.5 h before, cycle 8 days): 60%
- Relative remission rate ([2]; Example 255, Cytarabine (Ara-C) intraperitoneal injection 600 mg/kg single, CDK inhibitor oral 100 mg/kg single, 4 h before, cycle 8 days): 80%
- Relative remission rate ([2]; Example 256, Cytarabine (Ara-C) intraperitoneal injection 600 mg/kg single, CDK inhibitor oral 100 mg/kg single, 8 h before, cycle 8 days): 80%
- Relative remission rate ([2]; Example 257, Cytarabine (Ara-C) intraperitoneal injection 600 mg/kg single, CDK inhibitor oral 100 mg/kg single, 12 h before, cycle 8 days): 60%
- Relative remission rate ([2]; Example 258, Cytarabine (Ara-C) intraperitoneal injection 600 mg/kg single, CDK inhibitor oral 100 mg/kg single, 24 h before, cycle 8 days): 40%
- Relative remission rate ([2]; Example 259, Cytarabine (Ara-C) intraperitoneal injection 600 mg/kg single, CDK inhibitor oral 100 mg/kg single, 48 h before, cycle 8 days): 0%
- Relative remission rate ([2]; Example 270, Vinorelbine (NVB) intramuscular injection 10 mg/kg single, CDK inhibitor oral 50 mg/kg single, 1 h before, cycle 7 days): 50%
- Relative remission rate ([3]; Example 348, Etoposide intraperitoneal injection 75 mg/kg single, CDK inhibitor intravenous injection 100 mg/kg single, 24 h before, cycle 8 days): 10%
- Relative remission rate ([3]; Example 348, Etoposide intraperitoneal injection 75 mg/kg single, CDK inhibitor oral 100 mg/kg, 24 h before, cycle 8 days): 60%
- Relative remission rate ([3]; Example 365, Carboplatin (CBP) intravenous injection 120 mg/kg single, CDK inhibitor intravenous injection 100 mg/kg single, 24 h before, cycle 10 days): 10%
- Relative remission rate ([3]; Example 365, Carboplatin (CBP) intravenous injection 120 mg/kg single, CDK inhibitor oral 100 mg/kg single, 24 h before, cycle 10 days): 30%
- Relative remission rate ([3]; Example 367, Topotecan (TP) intraperitoneal injection 10 mg/kg single, CDK inhibitor intravenous injection 200 mg/kg single, 24 h before, cycle 10 days): 10%
- Relative remission rate ([3]; Example 367, Topotecan (TP) intraperitoneal injection 10 mg/kg single, CDK inhibitor oral 100 mg/kg single, 24 h before, cycle 10 days): 30%
- Relative remission rate ([3]; Example 377, Gemcitabine (GEM) intramuscular injection 120 mg/kg single, CDK inhibitor intravenous injection 50 mg/kg single, 1 h before, cycle 8 days): 10%
- Relative remission rate ([3]; Example 377, Gemcitabine (GEM) intramuscular injection 120 mg/kg single, CDK inhibitor oral 50 mg/kg single, 1 h before, cycle 8 days): 60%
- Relative remission rate ([3]; Example 380, Gemcitabine and carboplatin intravenous injection 120 (G) 100 (C) mg/kg single, CDK inhibitor intravenous injection 100 mg/kg single, 0.5 h before, cycle 8 days): 20%
- Relative remission rate ([3]; Example 380, Gemcitabine and carboplatin intravenous injection 120 (G) 100 (C) mg/kg single, CDK inhibitor oral 100 mg/kg single, 0.5 h before, cycle 8 days): 60%
- Relative remission rate ([3]; Example 381, Gemcitabine and carboplatin intravenous injection 120 (G) 100 (C) mg/kg single, CDK inhibitor intravenous injection 100 mg/kg single, 24 h before, cycle 8 days): 10%
- Relative remission rate ([3]; Example 381, Gemcitabine and carboplatin intravenous injection 120 (G) 100 (C) mg/kg single, CDK inhibitor oral 100 mg/kg single, 24 h before, cycle 8 days): 40%
- relief of diarrhea by oral administration and injection administration ([3]; diarrhea caused by etoposide, etoposide in combination with cisplatin, carboplatin, gemcitabine, gemcitabine in combination with carboplatin, and topotecan, oral administration has the most significant effect): effectively relieve diarrhea
